The text below walks through data of a melting point compilation (Tetko et al.; mined from patent text by program, amines drawn as free bases though some values may be those of a salt).

In general, melting point refers to the temperature of the solid-liquid transition.

Compound `CCc1c(C(=O)N2CCN(CCCCc3c[nH]c4ccc(F)cc34)CC2)nc(-c2ccccc2Cl)n1-c1ccc(Cl)cc1` came in with a melting point of 91 to 92 °C.
Turning to `COc1ccc2ccc(N)cc2c1`, the melting point was 157 °C.
Then `O=C1C=C/C(=C/c2cccc(C(F)(F)F)c2)O1`, with 69 to 71 °C; and `Clc1ccc(C#Cc2ccc(C#Cc3cc4ccccc4s3)s2)cc1`, with 189 to 191 °C; and `CCN(CC)CC1CCCCN1CCNC(=O)N1c2ccc(Br)cc2C(=O)Nc2cccnc21` (stereo not drawn), with 117 to 119 °C.
`O=C(OCN1C(=O)c2ccccc2C1=O)c1ccccc1[N+](=O)[O-]` showed a melting point of 159 to 160 °C.
As for `O=C1[C@@H]2[C@H](O)CCN2C(=O)N1c1ccc(Br)c2ccccc12` (relative stereo), the melting point is 204 to 206 °C.
As for `Cc1cc(-c2ccc(F)cc2F)n(-c2ccc(S(N)(=O)=O)cc2)c1`, the melting point lay within 170 to 172 °C.
As for `N#Cc1ccc2oc(CCc3ccc(C(=O)O)cc3)cc2c1`, the figure is 234 to 235 °C; as for `CN(CCOc1ccc(CON=C(CCC(=O)O)c2ccccc2)cc1)c1ncccn1`, 72 to 73 °C.
Then `CSc1cc(C)nc(SC)c1NC(=O)CN1CCN(CCSc2nc3ccccc3[nH]2)CC1`, with 96 to 97 °C; and `CN1Cc2c(C#N)ncn2-c2ccc(F)c(Cl)c2C1=O`, with 221 to 223 °C; and `NC(=O)N(O)Cc1ccc(Cl)s1`, with 138 to 140 °C.
Compound `O=C(O)COc1cc2c(c(Cl)c1Cl)C(=NO)C1(CCCC1)C2` returned a melting point of 228 °C.
In the case of `COCn1cc(-c2coc3ccc(-c4nnc(C)o4)cc23)cn1`, the melting point was in the range of 128 to 129 °C.
Then `O=C(O)Cc1cccc2c1ccn2Cc1ccccc1`, with 138 to 140 °C.
`O=C(O)C(CCSc1ccccc1)Oc1ccc(C(F)(F)F)cc1` (stereo not drawn): the melting point was 108 to 110 °C.
Compound `CCn1cc(Cl)nc(SCC(=O)Nc2ccccc2)c1=O` returned a melting point of 156 to 158 °C.
As for `CC(C)c1cccc(C(C)C)c1NC(=S)NC(C)(C)C(C)(C)C`, the figure is 161 to 162 °C; as for `CCCCCCCCCCCCNC(=O)C1CCC(=O)N1` (stereo not drawn), 114 to 116 °C; as for `NC(=O)NCCNc1ccc([N+](=O)[O-])cc1Cl`, 188 °C.
As for `CC(C)(C)OC(=O)C(Cc1ccc(Cl)cc1)N=C(c1ccccc1)c1ccccc1` (stereo not drawn), the figure is 102 to 103 °C; as for `COC(=O)C1=C(C)NC(c2ncsc2Cl)=NC1c1ccc(F)cc1` (stereo not drawn), 118 to 122 °C.
On to `Cn1cc(Cl)cc(Br)c1=O`, for which the melting point lay in the range of 162 to 163 °C.
Then `O=C(O)CCC1Cc2ccccc2C1`, with 99 to 100 °C.
Then `OC(COCc1ncc[nH]1)c1ccc2sccc2c1` (stereo not drawn), with 128 to 129 °C.
Then `O=C(NCCC(Nc1ccccc1)c1ccccc1)c1ccccc1` (stereo not drawn), with 120 to 121 °C.
Regarding `CS(=O)(=O)c1ccc(C(CC2CCCC2)C(=O)Nc2nccs2)cc1F` (stereo not drawn), the melting point lay in the range of 200 to 202 °C.
As for `Cc1cc2c(cc1-c1cc(C=C3SC(=O)NC3=O)ccc1N(C)C)N(C(C)C)C(=O)CC2(C)C`, the figure is 274 to 276 °C; as for `COc1cc2c(c3c1OC(C)(C)C3)C(c1cccc(N3CCN(CC(N)=O)S3(=O)=O)c1)=NC(C)(C)C2`, 206 to 208 °C.
Then `CCOC(=O)c1cnc(C)nc1-c1ccc(OC)c(OC)c1`, with 98 to 100 °C; and `N#Cc1cnn(-c2ccc(Cl)c(Cl)c2Cl)c1N(C(=O)Oc1ccccc1)C(=O)Oc1ccccc1`, with 206 to 208 °C.
Then `CNC(=O)C(=O)CCCCCCc1csc(-c2ccccc2)n1`, with 70 to 72 °C; and `Cn1cncc1C(O)(c1ccc(Cl)cc1)c1ccc2c(c1)c(CCc1ccc(Cl)s1)cc(=O)n2C` (stereo not drawn), with 128 °C.
As to `Cc1cc(N2CCC(=O)CC2)nn2cnnc12`, the melting point was in the range of 196 to 199 °C.
As for `CN(C)CCNc1cc(Cl)nc(-c2ccc(Cl)c(Cl)c2)n1`, the figure is 99.5 to 102 °C; as for `CCCc1c(OCCCCCCc2cccc(OCCCCCCCCC(=O)O)c2CCC(=O)O)ccc2c1OCCC2=O`, 63 to 65 °C.
The compound `Cc1nc(N2CCCC(Cc3ccc(F)cc3)C2=O)sc1C(=O)NCc1ccccc1` (stereo not drawn) displayed a melting point of 154 to 155 °C.
`CSc1nc(N)ncc1S(=O)(=O)NC(=O)NC(C)C` had a melting point of 190 to 192 °C.
Consider `O=C1NC(CO)Cc2c[nH]c3cccc1c23` (stereo not drawn), for which the melting point is 186 to 187 °C.
As for `COc1cc(C(=O)O)ccc1Cc1cn(C)c2ccc(C(=O)N(C)CC3CCCC3)cc12`, the figure is 112 to 114 °C; as for `CCC[C@H](NC(=O)Cc1cc(C)sc1C)C(=O)Nc1ncc(-c2ccccc2COCC)s1`, 84 °C; as for `COC(=O)c1c(Cc2ccc(C(=O)N(C)C)nc2)c(=O)c2ccc(C)nc2n1-c1ccccc1`, 235 to 236 °C.
`CCCCCCCCCCCCCCOCC(C=CC(=O)N(C)C)(C=CC(=O)N(C)C)COCCCCCCCCCCCCCC` displayed a melting point of 59 to 61 °C.
Then `COc1cc(-n2cnc3cc(-c4ccc(Cl)cc4)sc3c2=O)ccc1OC[C@H](O)C1CC1`, with 178 to 179 °C; and `Cn1ncc(/C=C/C(=O)Nc2ccc(CC(C)(C)C)cc2)c1-c1ccc(F)cc1`, with 150 to 151 °C.
`COc1ccc(C2CCCCC2)cc1-c1csc(NC(=O)C2CCN(C(=O)c3cnccn3)CC2)n1` gave a melting point of 129 °C.
Then `CCCCN(CC)c1cc(C)nc(Sc2c(C)cc(C)cc2C)c1`, with 110 to 112 °C; and `O=C(O)Cc1ccc(CC2CCCCC2=NO)cc1` (stereo not drawn), with 180 to 184 °C; and `CC(C)(C)c1ccc(Cn2cnc3c(-c4ccco4)ncnc32)cc1`, with 185 to 187 °C.
With `COC1=C(C#N)C(c2ccccc2)=C2C(=O)N(C)C(c3ccccc3)=C12`, the melting point fell in the range of 210 to 212 °C.
Then `COc1cc(OC)c2c(=O)[nH]c(-c3ccc(OC4CCN(C(C)=O)CC4)cc3)nc2c1`, with 275 to 277 °C; and `CCOC(=O)COc1ccc2c(=O)c3ccccc3oc2c1Cl`, with 183 to 185 °C; and `COc1ccc(C2=C(C(=O)N3CCOCC3)C(=O)c3ccccc32)cc1OC`, with 71.5 °C.
`CCCCCCCCCCC#Cc1csc(C=O)n1` yielded a melting point of 25.5 to 26 °C.
As for `Cc1c(Cl)c(N)cc(Cl)c1Oc1ccc(Cl)cc1Cl`, the figure is 96 to 97 °C; as for `Clc1ccc2ncsc2c1Cl`, 180 to 198 °C; as for `NCC1Cc2cc(C(F)(F)F)cc(-c3ccc(F)cc3)c2O1` (stereo not drawn), > 250 °C.
With `CC(C)C[C@H](NC(=O)OCC1CCCCC1)C(=O)N[C@@H](C(C)C)[C@H](O)c1c(-c2ccccc2)c1=O`, the melting point fell in the range of 148 to 149 °C.
The compound `COc1ccc(Cn2nc(-c3ccc(OC)cc3)c(-c3ccc(OC)cc3)cc2=O)cc1` displayed a melting point of 171 to 172 °C.
For the compound `O=C(O)c1cccc2c1sc1ccccc12`, the melting point lay within 253 to 255 °C.
Then `CS(=O)(=O)Nc1cc(-c2ccc(S(C)(=O)=O)cc2)c(-c2ccc(F)cc2)s1`, with 87 to 90 °C.
Then `CC(=O)N1CC(CCN2CC=C(c3c[nH]c4cc(Cl)ccc34)CC2)c2ccccc21` (stereo not drawn), with 169 to 170 °C; and `CC(C)S(=O)(=O)NCc1ccc2ccn(C3CCN(CCc4ccc(F)cc4)CC3)c2c1`, with 90 to 92 °C.
As for `COc1ccc(NC2(C#N)CCCCC2)cn1`, the figure is 121 to 123 °C.
Compound `CC(C)(NC(=O)CNC(=O)c1ccccc1)c1ccccc1` came in with a melting point of 156 to 157 °C.
Compound `O=C(Nc1cccc(Br)c1)Oc1ccccc1` yielded a melting point of 88 to 90 °C.
Compound `O=c1[nH]c2ccc(Cl)cc2n1CCCN1CCN(C(c2ccccc2)c2ccccc2)CC1` gave a melting point of 132 °C.
Then `COc1nc(NC(=O)NS(=O)(=O)c2c(Br)csc2C(=O)c2cccs2)nc(OC)n1`, with 115 °C; and `CCNC(=O)N(C)c1c(C)cc(C(O)(C(F)(F)F)C(F)(F)F)cc1C`, with 178 to 179 °C.
As for `CCOc1cc([C@@H](CC(=O)N(C)C)N2Cc3cccc(NC(=O)N(C)C)c3C2=O)ccc1OC`, the figure is 105 to 107 °C; as for `CCOC(=O)c1cc2cc(SC(=O)N(C)C)ccc2oc1=O`, 133 to 134 °C.
Then `CCOP(=O)(/C=C/c1cn(-c2ccccc2)nc1OCc1ccc(OCc2nc(-c3ccc(OC)c(C(=O)OC)c3)oc2C)c(OC)c1)OCC`, with 144 to 145 °C; and `Cc1cc(C)c(C2C(=O)N(C)C3(CCN(N(C)C)CC3)C2=O)c(C)c1` (stereo not drawn), with > 195 °C; and `CNC(NCc1ccc(Cl)nc1)=C(C(=S)NS(C)(=O)=O)[N+](=O)[O-]`, with 129 to 131 °C.
Consider `COc1cc(CCCN(C)Cc2ccc(OC)c(OC)c2)ccc1NC(=O)c1cccc2c(=O)c3cccc(F)c3[nH]c12`, for which the melting point lay in the range of 170 to 190 °C.
`CCCc1c(OCCCCCCc2ccc(CCCCC(=O)O)c(CCC(=O)O)c2)ccc2c1OCCC2=O` gave a melting point of 108 to 109 °C.
`Cc1ccc(C(=O)SCC2C(=O)OCC2c2ccc(Cl)cc2)cc1` (stereo not drawn) came in with a melting point of 99 to 100 °C.
Then `Cn1ccc2ccc(O)cc21`, with 74 °C; and `O=C1Nc2ccccc2Nc2cscc21`, with 233 to 234 °C; and `Cc1n[nH]c2c(O)ncnc12`, with 340 °C.
In turn, `COc1cc2nc(N3CCc4ccc(N)cc4C3)nc(N)c2cc1OC` displayed a melting point of 265 to 266 °C.
Compound `CCn1cc(C(=O)O)c(=O)c2cc(F)c(N3CC(CNC)C3)nc21` registered a melting point of 180 to 182 °C.
Then `O=C(O)Cc1c(C(=O)c2cccc(O)c2)[nH]c2cc(Cl)ccc12`, with 213 to 215 °C; and `COc1ccc(S(=O)(=O)C2(C(=O)NO)CCN(CCOc3ccccc3)CC2)cc1`, with 168 to 172 °C.
Then `CC(=O)NCC#CCn1cncc1C`, with 111 to 115 °C; and `Cc1cc(C)cc(C(=O)N2CCNC(c3ccc(Cl)c(Cl)c3)C2)c1` (single isomer, unassigned; (+)), with 97 to 100 °C.
Then `COC(=O)C1=C(C)Nc2ccccc2NC1c1ccccc1C(F)(F)F` (stereo not drawn), with 190 to 192 °C.
